According to patent US7670629B2, “Method of treating bacterial hoof infections of sheep and cattle” (priority 2005, dated 2010):
Like-named read-outs stand apart in the source and are kept apart here. Marks after values point to notes of the source that are not given here.

What was measured:
[1] = tested on: Prevotella melaninogenica ATCC No. 25845; settings: for zone of inhibition of Prevotella melaninogenica: disc on BA plate, anaerobic 48 hours, mean of three assays; for zone of inhibition of P. melaninogenica, comparison between minerals: at each of the concentrations (2.5-15%); for zone of inhibition of P. melaninogenica, comparison between minerals / overall antibacterial effect on P. melaninogenica: in words; for overall antibacterial effect on P. melaninogenica: summary
Procedure: (§1) The bacterial strains used for this study were obtained from the American Type Culture Collection (ATCC).
(§2) Dehydrated bacteria were resuspended in 5 mL of Brain Heart Infusion (BHI) broth and incubated anaerobically for 48 hours at 37° C. A total of 20 uL of each resuspended bacterial solution was plated on two 5% Trypticase Sheep Blood Agar (BA) plates and incubated anaerobically for 48 hours at 37° C. to ensure that a pure culture was maintained throughout the resuspension process. Six (6) vials of each bacterium were frozen down from the resuspended broth in a 20% glycerol solution (500 uL bacteria: 500 uL 40% glycerol).
(§3) One vial from the frozen stock of each bacterial strain was grown in 100 mL of Difco Anaerobe Broth MIC. P. melaninogenica was grown anaerobically for 24 hours at 37° C. and F. necrophorum was grown anaerobically for 48 hours at 37° C. After incubation, one hundred (100) 1 mL-vials of each bacterium were frozen down in a 10% glycerol solution.
(§4) Colony forming units/mL (CFU/mL) for each bacterium was determined by thawing 3 vials of each bacteria and making serial 1:10 dilutions out to 10e^−7. Separate serial dilutions were made for each of the three vials. A total of 100 uL of dilutions 10e^−3, 10e^−4, 10e^−5, 10e^−6, and 10e^−7 were plated in duplicate for each vial on BA plates and incubated under the appropriate culture conditions for each. The number of colonies growing on each dilution plate was counted and the CFU/mL for each dilution was determined. The average CFU/mL for each bacterium was calculated and used for all further assays.
(§5) The ZnCl arrived as a 60% solution and was diluted with distilled water to achieve concentrations of 2.5%, 5%, 10%, and 15% by weight. […] All mineral concentrations were filter-sterilized to ensure sterility.
(§6) To determine whether different concentrations of mineral salt solutions can inhibit the growth of an established culture, a separate blank paper disc was infused with each concentration of mineral salt solution and placed onto BA plates that had been swabbed with established cultures of each bacterium. Plates were incubated anaerobically for 48 hours and the zone (in mm) around each disc with no bacterial growth was measured with a caliper. The assay was repeated three times, and the mean zone of inhibition for each mineral concentration was calculated.
(§7) Data were analyzed using the Mixed Model procedure of SAS (PROC MIXED; SAS Stat Inc., Cary, N.C.) to test the effect of different concentrations for each mineral on P. melaninogenica and F. necrophorum. Least square means were calculated and separated using the PDIFF option of SAS. Contrast statements of SAS were used to determine linear and quadratic effects. The plate was used as the experimental unit. An alpha level of 0.05 was used to assess the significance in this experiment.

[2] = tested on: Fusobacterium necrophorum ATCC No. 25286; settings: for zone of inhibition of Fusobacterium necrophorum: disc on BA plate, anaerobic 48 hours, mean of three assays; for zone of inhibition of F. necrophorum, comparison between minerals: at each of the concentrations (2.5-15%), P<0.01; for zone of inhibition of F. necrophorum, comparison between minerals / overall antibacterial effect on F. necrophorum: in words; for overall antibacterial effect on F. necrophorum: summary
Procedure: as §1, §2, §3, §4, §5, §6, §7

[3] = 2.5% solution in distilled water
[4] = 10% solution in distilled water
[5] = 15% solution in distilled water

Structure (SMILES) | zone of inhibition of Prevotella melaninogenica ([1]; 2.5% solution) | zone of inhibition of Prevotella melaninogenica ([1]; 5% solution) | zone of inhibition of Prevotella melaninogenica ([1]; 10% solution) | zone of inhibition of Prevotella melaninogenica ([1]; 15% solution) | zone of inhibition of P. melaninogenica, comparison between minerals [1] | overall antibacterial effect on P. melaninogenica [1] | pH of mineral salt solution [3] | pH of mineral salt solution (5% solution in distilled water) | pH of mineral salt solution [4] | pH of mineral salt solution [5] | zone of inhibition of Fusobacterium necrophorum ([2]; 2.5% solution) | zone of inhibition of Fusobacterium necrophorum ([2]; 5% solution) | zone of inhibition of Fusobacterium necrophorum ([2]; 10% solution) | zone of inhibition of Fusobacterium necrophorum ([2]; 15% solution) | zone of inhibition of F. necrophorum, comparison between minerals [2] | overall antibacterial effect on F. necrophorum [2] | pH relative to the other mineral salts (at all of the concentrations, in words)
O=S(=O)([O-])[O-].[Cu+2] [CuSO4, copper sulfate] | 31.0^a mm | 31.7^a mm | 38.2^a mm | 40.7^a mm | not significantly different | greatest antibacterial effect | 4.34 | 4.13 | 3.94 | 3.81 | 36.3^c mm | 40.7^c mm | 46.7^c mm | 52.2^c mm | greatest | greatest antibacterial effect | –
[Cl-].[Cl-].[Zn+2] [ZnCl2, zinc chloride] | 38.9^b mm | 42.5^b mm | 46.6^b mm | 52.0^b mm | significantly greater zone of inhibition | greatest antibacterial effect | 6.02 | 5.78 | 5.43 | 5.21 | 27.6^b mm | 33.9^b mm | 41.3^b mm | 44.2^b mm | intermediate | greatest antibacterial effect | less acidic
O=S(=O)([O-])[O-].[Zn+2] [ZnSO4, zinc sulfate] | 29.3^a mm | 33.5^a mm | 38.6^a mm | 42.9^a mm | – | only slightly less antibacterial activity | 5.06 | 4.75 | 4.34 | 4.16 | 25.0^a mm | 29.5^a mm | 35.8^a mm | 40.4^a mm | smallest | only slightly less antibacterial activity | –
